Measured values published in ChEMBL document CHEMBL1201862, “PubChem BioAssay data set” (2004).
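All cell lines were grown in 96-well plates and treated with compound for 48 hours. GI50 marks 50% less growth.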 Calls of active or inactive are those of the source. Cut-off read from the data, not from the text of the source: active = GI50 up to about 1.1 µM and inactive = higher.

What was measured:
Experiment in all cases: NCI tumour cell line growth inhibition, 48 h
MDA-MB-231 = system: MDA-MB-231
SF-295 = system: SF-295
UACC-62 = system: UACC-62
HOP-62 = system: HOP-62
M14 = system: M14
NCI-H226 = system: NCI-H226
NCI/ADR-RES = system: NCI/ADR-RES
UACC-257 = system: UACC-257
OVCAR-4 = system: OVCAR-4
OVCAR-8 = system: OVCAR-8
SR = system: SR
786-0 = system: 786-0
SNB-19 = system: SNB-19
NCI-H460 = system: NCI-H460
DU-145 = system: DU-145
A549 = system: A549
T47D = system: T47D
MDA-MB-435 = system: MDA-MB-435
MOLT-4 = system: MOLT-4
KM12 = system: KM12

Measured: GI50

COc1cc2c(cc1O)CCN[C@@]21CS[C@H]2c3c(OC(C)=O)c(C)c4c(c3C(COC1=O)N1C2C2c3c(cc(C)c(OC)c3O)CC([C@@H]1O)N2C)OCO4 (stereo not given in full)
active: MDA-MB-231 < 0.0001 µM | SF-295 < 0.0001 µM | UACC-62 < 0.0001 µM | HOP-62 < 0.0001 µM | M14 < 0.0001 µM | NCI-H226 < 0.0001 µM | NCI/ADR-RES 0.0001 µM | UACC-257 < 0.0001 µM | OVCAR-4 < 0.0001 µM | OVCAR-8 < 0.0001 µM | SR < 1e-06 µM | 786-0 0.0001 µM | SNB-19 < 0.0001 µM | NCI-H460 < 0.0001 µM | DU-145 < 0.0001 µM | A549 < 0.0001 µM | T47D 0.00296 µM | MDA-MB-435 < 0.0001 µM | MOLT-4 < 0.0001 µM | KM12 < 0.0001 µM

O=S(=O)(O)n1ccnc1
inactive: MDA-MB-231 > 100 µM | SF-295 > 100 µM | UACC-62 > 100 µM | HOP-62 > 100 µM | M14 > 100 µM | NCI-H226 > 100 µM | NCI/ADR-RES > 100 µM | UACC-257 > 100 µM | OVCAR-4 > 100 µM | OVCAR-8 > 100 µM | SR > 100 µM | 786-0 > 100 µM | SNB-19 > 100 µM | NCI-H460 > 100 µM | DU-145 > 100 µM | A549 > 100 µM | T47D > 100 µM | MDA-MB-435 > 100 µM | MOLT-4 > 100 µM | KM12 > 100 µM

CC1=C2C(=O)c3ccccc3C(=O)[C@H]2C[C@@H](N2CCCCCC2=O)O1
inactive: MDA-MB-231 22.5 µM | SF-295 18.8 µM | UACC-62 19.2 µM | HOP-62 19 µM | M14 15.4 µM | NCI-H226 30.5 µM | NCI/ADR-RES 22.3 µM | UACC-257 17.4 µM | OVCAR-4 17.2 µM | OVCAR-8 21.5 µM | SR 6.92 µM | 786-0 18.4 µM | SNB-19 21 µM | NCI-H460 18.8 µM | DU-145 18.3 µM | A549 20.3 µM | T47D 20.8 µM | MDA-MB-435 16 µM | MOLT-4 14.7 µM | KM12 16.7 µM

C=CCOC(=O)C1=C(C)N=C2N[C@H](CCCCCCCCC)C[C@@H]3CCC1N23 (stereo not given in full)
inactive: MDA-MB-231 21.5 µM | SF-295 34.9 µM | UACC-62 17.7 µM | HOP-62 30.5 µM | M14 18.7 µM | NCI-H226 17.9 µM | NCI/ADR-RES 22.8 µM | UACC-257 18.3 µM | OVCAR-4 21 µM | OVCAR-8 30.5 µM | SR 28.4 µM | 786-0 20 µM | SNB-19 19.2 µM | NCI-H460 25.4 µM | DU-145 27.4 µM | A549 30.1 µM | T47D 23.2 µM | MDA-MB-435 20.3 µM | MOLT-4 30.1 µM | KM12 34 µM

c1ccc(C2=NC3OC2c2ccccc23)cc1 (stereo not given)
inactive: MDA-MB-231 > 10 µM | SF-295 > 10 µM | UACC-62 > 10 µM | HOP-62 > 10 µM | M14 > 10 µM | NCI-H226 > 10 µM | NCI/ADR-RES > 10 µM | UACC-257 > 10 µM | OVCAR-4 > 10 µM | OVCAR-8 > 10 µM | SR > 10 µM | 786-0 > 10 µM | SNB-19 > 10 µM | NCI-H460 > 10 µM | DU-145 > 10 µM | A549 > 10 µM | T47D > 10 µM | MDA-MB-435 > 10 µM | MOLT-4 > 10 µM | KM12 > 10 µM

CC(=O)O/N=C1\C=Cc2c(no[n+]2[O-])C1=O
inactive: MDA-MB-231 18.9 µM | SF-295 > 100 µM | UACC-62 16 µM | HOP-62 38.3 µM | M14 18.6 µM | NCI-H226 > 100 µM | NCI/ADR-RES 27.6 µM | UACC-257 18.2 µM | OVCAR-4 17.2 µM | OVCAR-8 12.3 µM | SR 15.8 µM | 786-0 19.3 µM | SNB-19 > 100 µM | NCI-H460 34.7 µM | DU-145 17.9 µM | A549 16.1 µM | T47D 25.6 µM | MDA-MB-435 20.6 µM | MOLT-4 10.4 µM | KM12 18 µM

CC(C)=CCc1[nH]c2ccccc2c1C1=C(O)C(=O)C(c2c(CC=C(C)C)[nH]c3ccccc23)=C(O)C1=O
inactive: MDA-MB-231 1.28 µM | M14 3.24 µM | NCI-H226 1.73 µM | NCI/ADR-RES 2.7 µM | UACC-257 2.12 µM | OVCAR-4 3.58 µM | OVCAR-8 1.53 µM | SR 1.17 µM | 786-0 1.56 µM | SNB-19 2.03 µM | NCI-H460 1.34 µM | DU-145 2.39 µM | T47D 2.76 µM | MOLT-4 1.96 µM
active: SF-295 1.03 µM | UACC-62 0.377 µM | HOP-62 0.815 µM | A549 0.587 µM | MDA-MB-435 0.608 µM | KM12 1.04 µM

Cn1c(=O)[nH]c2nccnc2c1=O
inactive: MDA-MB-231 > 10 µM | SF-295 > 10 µM | UACC-62 > 10 µM | HOP-62 > 10 µM | M14 > 10 µM | NCI-H226 > 10 µM | NCI/ADR-RES > 10 µM | UACC-257 > 10 µM | OVCAR-4 > 10 µM | OVCAR-8 > 10 µM | SR > 10 µM | 786-0 > 10 µM | SNB-19 > 10 µM | NCI-H460 > 10 µM | DU-145 > 10 µM | A549 > 10 µM | T47D > 10 µM | MDA-MB-435 > 10 µM | MOLT-4 > 10 µM | KM12 > 10 µM

O=[N+]([O-])c1ccc(NC(=S)Nc2ccccn2)cc1
inactive: MDA-MB-231 40.3 µM | SF-295 27.4 µM | UACC-62 19.9 µM | HOP-62 17.3 µM | M14 46.8 µM | NCI-H226 22.7 µM | NCI/ADR-RES 33.4 µM | UACC-257 64.4 µM | OVCAR-4 37.5 µM | OVCAR-8 31.5 µM | SR 5.28 µM | 786-0 16.8 µM | SNB-19 57.3 µM | NCI-H460 23.3 µM | DU-145 7.5 µM | A549 19.1 µM | T47D 35.7 µM | MDA-MB-435 20.8 µM | MOLT-4 16.9 µM | KM12 10.3 µM

Cc1c2ccncc2c(C)c2c1sc1ccccc12
inactive: MDA-MB-231 16.5 µM | SF-295 10.1 µM | UACC-62 5.24 µM | HOP-62 7.38 µM | M14 11.6 µM | NCI-H226 8.13 µM | NCI/ADR-RES 7.08 µM | UACC-257 19.3 µM | OVCAR-4 14.3 µM | OVCAR-8 8.22 µM | SR 2.19 µM | 786-0 4.86 µM | SNB-19 9.4 µM | NCI-H460 2.31 µM | DU-145 13.3 µM | A549 4.33 µM | T47D 13.1 µM | MDA-MB-435 15 µM | MOLT-4 2.33 µM | KM12 12.1 µM

O=C(/C=C/c1ccc(OCc2ccccc2)cc1)NCc1ccc(C(=O)NCCc2c[nH]c3ccccc23)cc1
inactive: MDA-MB-231 13.8 µM | SF-295 3.41 µM | UACC-62 15.5 µM | HOP-62 3.66 µM | M14 27.8 µM | NCI-H226 > 34.6 µM | NCI/ADR-RES > 100 µM | UACC-257 33 µM | OVCAR-4 7.76 µM | OVCAR-8 6.76 µM | SR 20.9 µM | 786-0 3.61 µM | SNB-19 9.77 µM | NCI-H460 15.4 µM | DU-145 32.8 µM | A549 17.7 µM | T47D 30.4 µM | MDA-MB-435 > 57.3 µM | MOLT-4 > 59.8 µM | KM12 63.8 µM

Nc1ncnc2c1ncn2C1CC(O)C(CO)O1 (stereo not given)
inactive: MDA-MB-231 > 100 µM | SF-295 > 100 µM | UACC-62 > 100 µM | HOP-62 > 100 µM | M14 > 100 µM | NCI-H226 > 100 µM | NCI/ADR-RES > 100 µM | UACC-257 > 100 µM | OVCAR-4 > 100 µM | OVCAR-8 > 100 µM | SR > 100 µM | 786-0 > 100 µM | SNB-19 > 100 µM | NCI-H460 > 100 µM | DU-145 > 100 µM | A549 > 100 µM | T47D > 100 µM | MDA-MB-435 > 100 µM | MOLT-4 > 100 µM | KM12 62.7 µM
